{"source": "patent US11052154B2", "about": "“Ras protein degradation inducing molecule and pharmaceutical composition” (Tokyo University of Science Foundation, priority 2016, dated 2021)", "target": "T1, endogenous wild-type H-Ras protein (Homo sapiens, UniProt P01112)", "T1 construct": "an endogenous wild-type K-Ras protein and wild-type H-Ras protein; endogenous in cells; host or cells: HeLa", "T1 sequence (P01112 whole entry)": "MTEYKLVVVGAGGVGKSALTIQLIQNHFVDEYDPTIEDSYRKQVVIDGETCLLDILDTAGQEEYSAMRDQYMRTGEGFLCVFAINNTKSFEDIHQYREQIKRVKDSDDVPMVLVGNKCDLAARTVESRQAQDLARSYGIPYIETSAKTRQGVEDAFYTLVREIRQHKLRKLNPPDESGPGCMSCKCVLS", "assay": "Degradation of endogenous wild-type H-Ras protein in HeLa cells, Western blot analysis", "format": "cell-based", "details": "48 hours after addition, vs control (DMSO), FIG. 5", "procedure": "In Example 6, degradation (knockdown) of an endogenous wild-type K-Ras protein and wild-type H-Ras protein in HeLa cells to which TUS-007 had been added was evaluated by Western blot analysis.\nHeLa cells were seeded in a 24-well plate at a cell density of 8×10^4 cells/well, and then cultured under conditions of 37° C. and 5 vol % CO2 for 16 hours.\nAfter 16 hours from cell seeding, TUS-007 was added to HeLa cells as follows. As a medium, a serum-free medium (37° C.) in which 1 mass % L-glutamine solution (Sigma-Aldrich) was added to D-MEM (high D-glucose, phenol red, sodium pyruvate (Wako Pure Chemical Industries, Ltd.)) was used. It is noted that the L-glutamine solution was added immediately before use. A DMSO solution containing TUS-007 was mixed with the medium so that the concentration of DMSO was 1 vol %, and added to each well at 500 μL/well, and cultured under conditions of 37° C. and 5 vol % CO2. As a control, DMSO was used. […]\nAfter electrophoresis, proteins were transferred to a PVDF membrane (Immobion™-P, Millipore) under conditions of 100 V and 2 hours using a tank-type blotting device and a transfer buffer (25 mM Tris-HCl, 195 mM glycine, 0.01% SDS, 15% methanol). […] Subsequently, the membrane was treated with a chemiluminescence reagent Immobilon™ Western (Millipore), and then chemiluminescence was detected using a lumino image analyzer LAS-3000 (FUJIFILM Corporation). […]", "data": [{"smiles": "CCC(C)[C@H](NC(=O)CCCCCCNC(=O)[C@H](CC(C)C)NC(=O)CNC(=O)c1cc(Cl)ccc1Cl)C(=O)Nc1ccc2[nH]c(Cc3c[nH]c4ccccc34)nc2c1", "note": "(stereo in doubt) [TUS-007]", "values": [{"measurement": "amount of the endogenous wild-type H-Ras protein (Western blot)", "result": "the amount of the endogenous wild-type K-Ras protein and wild-type H-Ras protein was reduced"}]}]}
